# Laboratory results reported in patent US20210115000A1, “NILE RED DERIVATIVES FOR IMPROVED RATIOMETRIC IMAGING FOR NERVE SPECIFIC CONTRAST” (Oregon Health & Sciences University, priority 2018, published 2021).
# Entries after “also recorded” stand apart in the source; their conditions may differ.
# Legend:
# [1] = test system: nerve, adipose and muscle tissue at nerve sites; assay: In vivo co-staining with Oxazine 4, ratiometric imaging and ROC curve analysis; parameters: species or system male CD-1 mice; conditions: for ROC AUC of nerve-to-muscle contrast, change: 30 min after staining compared to immediately following staining
# From the text: In vivo images were acquired using a previously published, custom-built small animal fluorescence imaging system, described briefly here.^27 Fluorescent images were obtained using a Qimaging EXi Blue monochrome camera (Surrey, British Columbia, CA) with a removable Bayer mask for collection of co-registered color and fluorescence images. A Photofluor II broad band light source (89 North) was expanded onto the surgical field through a liquid light guide and used unfiltered for white light illumination. Nile Red and NR5 were excitated using a 545 t 12.5 nm bandpass filter, while fluorescence emission images were collected with a 605±35 nm bandpass filter. Oxazine 4 (Exciton, West Chester, Ohio) was used for nerve and adipose co-staining and ratiometic imaging studies. Oxazine 4 was excited using a 620±30 nm bandpass filter, while fluorescence emission images were collected through a 700±37.5 nm bandpass filter. Approval for the use of animals in the study was obtained from the Institutional Animal Care and Use Committee (IACUC) at Oregon Health and Science University (OHSU). In vivo staining studies were carried out on male CD-1 mice using an optimized direct/topical administration protocol.^2 Staining was performed concurrently on no more than two nerve sites (sciatic nerve or brachial plexus) per mouse. Nile Red and all Nile Red derivatives were formulated in a previously published co-solvent formulation (10% DMSO, 5% Kolliphor, 63.75% serum and 21.25% PBS^14) at a final concentration of 100 μM. Each formulated fluorophore was incubated for 5 minutes on the nerve site (n=4 nerve sites/fluorophore), followed by 9 short flushes with PBS. The nerve site was then incubated with blank co-solvent not containing fluorophore for 5 minutes, followed again by 9 short flushes with PBS. In vivo co-staining was completed with (1) Nile Red and Oxazine 4 as well as (2) NR5 and Oxazine 4. For these studies, co-solvent formulated Oxazine 4 ([…]) was incubated on the nerve site for 5 minutes followed by 9 short flushes with PBS. The co-solvent formulated Nile Red or NR5 (100 μM) was then incubated on the nerve site for 5 minutes and also followed by 9 short flushes with PBS. Co-registered (1) Nile Red and Oxazine 4 or (2) NR5 and Oxazine 4 images were collected from n=4 nerve sites per groups (1) and (2). Ratiometric images were calculated and quantified using region of interest analysis on the white light images to identify the nerve, adipose and muscle tissue types. Due to the known cross talk of Oxazine 4 into the Nile Red channel,^2 the Oxazine 4 image was subtracted from the Nile Red or NR5 image resulting in an image of only adipose. The ratiometric images were then calculated as the Oxazine 4 image minus the corrected Nile Red or NR5 image divided by the corrected Nile Red or NR5 image. Receiver Operator Characteristic (ROC) curve analysis was performed to assess differences between the ratiometric images, where the area under the curve (AUC) was used as the metric to differentiate between groups (1) and (2) using custom written MatLab code.^28
# [2] = Spectroscopic analysis: absorbance, emission and quantum yield of Nile Red derivatives; format: physicochemical
# Experimental: Tandem liquid chromatography mass spectroscopy (LCMS) analysis (Agilent 1260 LC system with a 6224 time of flight (TOF) MS, Agilent, Santa Clara, Calif.) was performed using a 2.7 micron C18 column (4.6×50 mm, Agilent). High performance liquid chromatography (HPLC) purification (Agilent 1260 system with a preparative pump) was performed using a 5 micron C18 column (21.2×150 mm, Agilent). For both HPLC and LCMS, the mobile phase consisted of HPLC grade acetonitrile and water, treated with 0.1% formic acid. Spectroscopic analysis was performed on a Spectramax M5 spectrometer (Molecular Devices, Sunnyvale, Calif.) using a quartz cuvette with a 1 cm pathlength. Quantum yield was calculated according to equation (1).
# Where Ø is the quantum yield, F is the integrated fluorescence intensity, f is the absorbance at the excitation wavelength and n is the refractive index of the solvent. S refers to the quantum yield standard (Rhodamine B)^25 and X refers to the unknown sample.
# [3] = test system: CD-1 mouse sciatic nerve and surrounding muscle and adipose tissues; assay: Ex vivo tissue section staining, imaging and fluorescence quantification; conditions: for tissue fluorescence intensity, region of interest analysis / tissue staining specificity on mouse tissue sections: 100 μM, 40 min; for tissue fluorescence intensity, region of interest analysis: n=4 tissue sections; for tissue staining specificity on mouse tissue sections: sections with nerve, muscle, adipose; for adipose to muscle ratio: ex vivo tissue sections, vs control autofluorescence
# Experimental: Cryosections of CD-1 mouse sciatic nerve and surrounding muscle and adipose tissues from unrelated experiments were cut from optimal cutting temperature (OCT, Fisher Scientific, Hampton, N.H.) embedded frozen tissues. Cryosectioned tissues were captured on superfrost plus slides (Fisher Scientific) at 10 μm thickness. The tissue sections were washed with 1×PBS for 2 minutes to remove OCT, and then fixed with 2% PFA for 15 mins. The tissue sections were then washed with 0.1% Tween 20 in 1×PBS (3×5 mins), followed by incubation with 100 μM of Nile Red and each Nile Red derivative formulated using 10% DMSO, 5% Kolliphore (Sigma Aldrich, St. Louis, Mo.), 63.75% FBS, and 21.25% 1× PBS as previously described.^26 Tissue sections were incubated with the formulated fluorophores for 40 minutes at room temperature, followed by washing with blank formulation not containing fluorophore (2×5 mins). Each tissue section was then washed with 1×PBS (2×5 mins), fixed for 15 minutes using 2% PFA, followed by a final wash with 1×PBS for 5 mins before mounting in glycerol (Fisher Scientific). Images were collected at an exposure time of 650 ms for all Nile Red and Nile Red derivative stained sections. Four tissue sections were stained for Nile Red and each Nile Red derivative, facilitating adipose to muscle and adipose to nerve contrast ratio quantification where tissue intensities were quantified using region of interest analysis with custom written MatLab code (The MathWorks, Natick, Mass.). For each tissue type, a representative area was selected, where a threshold based mask was set to determine tissue from background. The mean tissue intensity was calculated in adipose, nerve and muscle tissues as the intensity per second and used to calculate the adipose to nerve and adipose to muscle contrast ratios. All ex vivo and cellular fluorescence and white light images were collected using a Zeiss AxioObserver inverted fluorescence microscope (Carl Zeiss, Oberkochen, Germany). All cell images were collected at 40× magnification and all tissue section images were collected at 10× magnification. Fluorescence excitation was completed using a Photofluor II broad band light source (89 North, Burlington, Vt.) filtered with a 545±12.5 nm bandpass excitation filter. Fluorescence images were collected using a 605±35 nm bandpass emission filter and a AxioCam 506 monochromo camera (Zeiss). All Filters were Purchased from Chroma Technologies (Bellows Falls, Vt.).
smiles,measurement,setting,value
"CCN(CC)c1ccc2nc3c4ccc(-c5ccc(C#N)cc5)cc4c(=O)cc-3oc2c1 [NR5, 4-(9-(diethylamino)-5-oxo-5H-benzo[a]phenoxazin-3-yl)benzonitrile]","ROC AUC of nerve-to-muscle contrast, change",[1],little change
same,"z-score, nerve-to-muscle contrast","[1]; NR5 and oxazine 4 costaining versus oxazine 4 alone, 30 min after staining",-21.32
same,"z-score, nerve-to-muscle contrast","[1]; NR5 costaining with oxazine 4 compared to Nile Red costaining with oxazine 4, 30 min after staining",99.96
same,"z-score, nerve-to-adipose contrast","[1]; NR versus NR5 costaining with oxazine 4, 30 min after staining",98.20
same,"z-score, nerve-to-adipose contrast","[1]; NR versus NR5 costaining with oxazine 4, first time point (immediately after staining implied)",25.26
same,"z-score, nerve-to-muscle contrast","[1]; NR versus NR5 costaining with oxazine 4, immediately following staining",21.87
same,ROC AUC nerve contrast,"[1]; costaining with Oxazine 4, 30 minutes post direct administration",improved nerve to adipose and nerve to muscle contrast ratios; also recorded: significantly higher nerve-to-adipose contrast
same,ROC AUC nerve contrast,"[1]; costaining with Oxazine 4, immediately following direct administration",slightly improved values
same,"z-score, nerve-to-adipose contrast","[1]; oxazine 4 only staining versus NR5 costaining with oxazine 4, 30 min after staining",16.12
same,"z-score, nerve-to-adipose contrast","[1]; oxazine 4 only staining versus NR5 costaining with oxazine 4, first time point (immediately after staining implied)",28.63
same,"z-score, nerve-to-muscle contrast","[1]; oxazine 4 only staining versus NR5 costaining with oxazine 4, immediately following staining",15.22
same,Max Abs,[2]; in DMSO,560 nm
same,Max Em,[2]; in DMSO,640 nm
same,Stokes Shift,[2]; in DMSO,80 nm
same,QY (quantum yield),"[2]; in DMSO, standard Rhodamine B",0.54
same,"tissue fluorescence intensity, region of interest analysis",[3],"strong nerve and adipose fluorescence staining; also recorded: substantially higher adipose, nerve and muscle tissue fluorescence"
same,tissue staining specificity on mouse tissue sections,[3],adipose specificity; also recorded: brightest overall tissue staining compared to the other Nile Red derivatives
same,adipose to muscle ratio,[3],increased contrast over control autofluorescence adipose to muscle ratio; also recorded: highest contrast ratios
CCN(CC)c1ccc2nc3c4ccccc4c(=O)cc-3oc2c1 [Nile Red],"ROC AUC of nerve-to-muscle contrast, change",[1],substantial drop in AUC value
same,Max Abs,[2]; in DMSO,550 nm
same,Max Em,[2]; in DMSO,630 nm
same,absorbance maximum,[2]; in toluene,520 nm
same,emission maximum,[2]; in toluene,570 nm
same,"tissue fluorescence intensity, region of interest analysis",[3],strong nerve and adipose fluorescence staining; also recorded: highest overall tissue fluorescence
same,tissue staining specificity on mouse tissue sections,[3],adipose specificity
same,adipose to muscle ratio,[3],increased contrast over control autofluorescence adipose to muscle ratio; also recorded: highest contrast ratios
